In the supplement of paper PMC10627819:

Experiments:
[1] = test system: S. aureus Newman; assay: fitness (endpoint OD595 vs no drug) (fraction); higher = more growth
Method in brief: (§1)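 Bacterial fitness was scored as optical density at the stationary-phase transition relative to the robust mean of no-drug control wells. Scores are capped at 1. The growth data were OD595 readings every 30 min for 14 h at 37 °C, background-subtracted against the first reading, from 384-well plates inoculated at OD595 0.01 in TSB, LB Lennox or CY.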

[2] = test system: S. pneumoniae D39V; assay: as above
Method in brief: as §1

[3] = test system: S. aureus DSM 20231; assay: as above
Method in brief: as §1

[4] = test system: S. aureus Newman; assay: Bliss interaction score (quartile over a dose matrix) (fitness difference); higher = more antagonism (negative = synergy)
Method in brief: (§2)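 Combination data were used to infer fitness under each single drug. Fitness is the OD595 at entry into stationary phase divided by the robust mean of the plate's no-drug wells, with a cap of 1. The Bliss score is the observed minus the expected product fitness, summarised by quartiles over technical, biological and donor/recipient replicates.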

[5] = test system: B. subtilis 168; assay: as above
Method in brief: as §2

[6] = test system: S. pneumoniae D39V; assay: as above
Method in brief: as §2

[7] = test system: S. aureus DSM 20231; assay: as above
Method in brief: as §2
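Wherever Bliss interaction score (quartile over a dose matrix) is given: first quartile when negative (synergy) and third quartile when positive (antagonism).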

COc1ccc(C[C@H](N)C(=O)N[C@H]2[C@@H](O)[C@H](n3cnc4c(N(C)C)ncnc43)O[C@@H]2CO)cc1 [Puromycin] + CN[C@H](CC(C)C)C(=O)N[C@H]1C(=O)N[C@@H](CC(N)=O)C(=O)N[C@H]2C(=O)N[C@H]3C(=O)N[C@H](C(=O)N[C@H](C(=O)O)c4cc(O)cc(O)c4-c4cc3ccc4O)[C@H](O)c3ccc(c(Cl)c3)Oc3cc2cc(c3O[C@@H]2O[C@H](CO)[C@@H](O)[C@H](O)[C@H]2O[C@H]2C[C@](C)(N)[C@H](O)[C@H](C)O2)Oc2ccc(cc2Cl)[C@H]1O [Vancomycin]
fitness
Settings | [1] | [2] | [3]
first compound 0.39 µg/mL, partner 0.1875 µg/mL | ≥ 1 | – | ≥ 1
first compound 0.39 µg/mL, partner 0.375 µg/mL | 0.996 | – | 0.986
first compound 0.39 µg/mL, partner 0.75 µg/mL | ≥ 1 | – | ≥ 1
first compound 0.78 µg/mL, partner 0.1875 µg/mL | ≥ 1 | – | ≥ 1
first compound 0.78 µg/mL, partner 0.375 µg/mL | 0.994 | – | ≥ 1
first compound 0.78 µg/mL, partner 0.75 µg/mL | 0.979 | – | ≥ 1
first compound 1 µg/mL, partner 0.03125 µg/mL | – | 0.999 | –
first compound 1 µg/mL, partner 0.0625 µg/mL | – | 0.989 | –
first compound 1 µg/mL, partner 0.125 µg/mL | – | 0.8 | –
first compound 1.56 µg/mL, partner 0.1875 µg/mL | ≥ 1 | – | ≥ 1
first compound 1.56 µg/mL, partner 0.375 µg/mL | 0.978 | – | ≥ 1
first compound 1.56 µg/mL, partner 0.75 µg/mL | 0.999 | – | ≥ 1
first compound 2 µg/mL, partner 0.03125 µg/mL | – | 0.985 | –
first compound 2 µg/mL, partner 0.0625 µg/mL | – | 0.969 | –
first compound 2 µg/mL, partner 0.125 µg/mL | – | 0.849 | –
first compound 4 µg/mL, partner 0.03125 µg/mL | – | 0.808 | –
first compound 4 µg/mL, partner 0.0625 µg/mL | – | 0.822 | –

one replicate
Settings | fitness
[2], first compound 1 µg/mL, partner 0.25 µg/mL | 0.088
[2], first compound 1 µg/mL, partner 0.5 µg/mL | 0.0805
[2], first compound 2 µg/mL, partner 0.25 µg/mL | 0.223
[2], first compound 2 µg/mL, partner 0.5 µg/mL | 0.125
[2], first compound 4 µg/mL, partner 0.25 µg/mL | 0.141
[2], first compound 4 µg/mL, partner 0.5 µg/mL | 0.121
[3], first compound 3.12 µg/mL, partner 0.1875 µg/mL | ≥ 1
[3], first compound 3.12 µg/mL, partner 0.375 µg/mL | 0.915
[3], first compound 3.12 µg/mL, partner 0.75 µg/mL | 0.922
[3], first compound 6.24 µg/mL, partner 0.1875 µg/mL | 0.642
[3], first compound 6.24 µg/mL, partner 0.375 µg/mL | 0.737
[3], first compound 6.24 µg/mL, partner 0.75 µg/mL | 0.716

Settings | Bliss interaction score
[4] | 0.0575
[5] | -0.0411
[6] | -0.0711
[7] | 0.0659

COc1ccc(C[C@H](N)C(=O)N[C@H]2[C@@H](O)[C@H](n3cnc4c(N(C)C)ncnc43)O[C@@H]2CO)cc1 [Puromycin] + Cn1nnc(-c2ccc(-c3ccc(N4C[C@H](CO)OC4=O)cc3F)cn2)n1 [Tedizolid]
fitness
Settings | partner 0.03125 µg/mL | partner 0.0625 µg/mL | partner 0.125 µg/mL | partner 0.25 µg/mL
[1], first compound 0.39 µg/mL | – | 0.987 | 0.884 | 0.479
[1], first compound 0.78 µg/mL | – | 0.935 | 0.834 | 0.404
[1], first compound 1.56 µg/mL | – | 0.942 | 0.829 | 0.304
[2], first compound 1 µg/mL | 0.967 | 0.966 | 0.787 | –
[2], first compound 2 µg/mL | 0.958 | 0.935 | 0.78 | –
[2], first compound 4 µg/mL | 0.819 | 0.828 | 0.756 | –
[3], first compound 0.39 µg/mL | – | 0.879 | 0.7 | 0.24
[3], first compound 0.78 µg/mL | – | 0.831 | 0.794 | 0.267
[3], first compound 1.56 µg/mL | – | 0.827 | – | 0.157

fitness, one replicate
Settings | partner 0.0625 µg/mL | partner 0.125 µg/mL | partner 0.25 µg/mL | partner 0.5 µg/mL
[2], first compound 1 µg/mL | – | – | 0.652 | 0.184
[2], first compound 2 µg/mL | – | – | 0.686 | 0.284
[2], first compound 4 µg/mL | – | – | 0.499 | 0.234
[3], first compound 3.12 µg/mL | 0.503 | 0.148 | 0.0225 | –
[3], first compound 6.24 µg/mL | 0.224 | 0.0566 | 0.0172 | –

Settings | Bliss interaction score
[4] | 0.0352
[5] | -0.0598
[6] | -0.1
[7] | -0.0959
